As usually defined, the half-life is the time in which the quantity being followed falls by half. Low readings indicate rapid decline, high ones slow decline. By AUC is commonly meant the area under the concentration-time curve, a measure of exposure. The Cmax is the maximum level reached in the sampled fluid or tissue.

Values after ≈ are worked out from the molar mass of the structure shown.

These results are taken from ChEMBL document CHEMBL4354782, “Quinolone antibiotics” (Medchemcomm, 2019).

The nature of series [1]: Toxicity in human assessed as arthralgia effect.
A short description of series [2]: Toxicity in human assessed as CNS effect by measuring alteration in mentation.
The subject of series [3] is Enterococcus. Briefly: Antibacterial activity against Enterococcus by agar diffusion method. The format is functional. (In general: A growth-free zone around the sample is the usual read-out of agar diffusion tests.)
Series [4] relates to Streptococcus pneumoniae. Kind of series: Antibacterial activity against Streptococcus pneumoniae by agar diffusion method. The format is functional.
Series [5] concerns Pseudomonas aeruginosa. Kind of series: Antibacterial activity against Pseudomonas aeruginosa by agar diffusion method. Type of series: functional.
The subject of series [6] is Klebsiella. Kind of series: Antibacterial activity against Klebsiella by agar diffusion method. The format is functional.
The nature of series [7]: Half life in human at 1 g, po administered for 4 times. Type of series: ADME, organism-based. The settings on record: in vivo.
Series [8] concerns Staphylococcus aureus. Briefly: Antibacterial activity against Staphylococcus aureus by agar diffusion method. Type of series: functional.
Series [9] concerns Bacteroides fragilis. Kind of series: Antibacterial activity against Bacteroides fragilis by agar diffusion method. Type of series: functional.
For series [10], the system named is Haemophilus influenzae. Briefly: Antibacterial activity against Haemophilus influenzae with horse blood by agar diffusion method. The format is functional.
Series [11] relates to Escherichia coli. Kind of series: Antibacterial activity against Escherichia coli by agar diffusion method. The format is functional.
The test system of series [12] is Streptococcus pyogenes. Kind of series: Antibacterial activity against Streptococcus pyogenes by agar diffusion method. Type of series: functional.
For series [13], the system named is Clostridium perfringens. Briefly: microbe, parasite or virus in culture.
A short description of series [14]: AUC in human at 0.75 g, po bid. The note with it: in vivo.
Series [15] in a line: Cmax in human at 0.75 g, po bid. The settings on record: in vivo.
The species entered for series [16] is Homo sapiens. Kind of series: Phototoxicity in human. The format is organism-based. The note with it: in vivo.
Series [17] can be described thus: Half life in human at 0.4 g, po. Type of series: ADME. The note with it: in vivo.
Series [18] can be described thus: Cardiotoxicity in human QTc prolongation. The format is toxicity.
Series [19] in a line: Protein binding in human at 0.4 g, po. The format is ADME. The settings on record: in vivo, read-out: PB (converted).
Series [20] can be described thus: Cmax in human at 0.4 g, po. The note with it: in vivo. Further details: dose 0.4 g, route oral. The format is ADME.
Series [21] in a line: Toxicity in human assessed as gastrointestinal effect.
Series [22] can be described thus: AUC in human at 0.4 g, po. Type of series: ADME. The note with it: in vivo.
Series [23] can be described thus: Protein binding in human at 0.32 g, po. Type of series: ADME. The settings on record: in vivo, read-out: PB (converted).
Series [24] can be described thus: Half life in human at 0.32 g, po. The note with it: in vivo. Type of series: ADME.
Series [25] is described as follows: AUC in human at 0.32 g, po. Type of series: ADME. The settings on record: in vivo.
Series [26] is described as follows: Cmax in human at 0.32 g, po. Type of series: ADME. Further details: dose 0.32 g, route oral. The settings on record: in vivo.
The nature of series [27]: Cmax in human at 0.4 g, po by HPLC analysis. The format is ADME, organism-based. The arrangement: dose 0.4 g, route oral. The settings on record: in vivo.
Series [28] can be described thus: AUC in human at 0.4 g, po by HPLC analysis. Type of series: ADME, organism-based. The settings on record: in vivo.
The nature of series [29]: Protein binding in human at 0.4 g, po bid. Type of series: ADME, organism-based. The settings on record: in vivo, read-out: PB (converted).
The nature of series [30]: AUC in human at 0.4 g, po bid. The format is ADME, organism-based. The note with it: in vivo.
A short description of series [31]: Half life in human at 0.4 g, po bid. Type of series: ADME, organism-based. The settings on record: in vivo.
Series [32] in a line: Cmax in human at 0.4 g, po bid. Type of series: ADME, organism-based. The arrangement: dose 0.4 g, route oral. The note with it: in vivo.

For `C[C@H]1COc2c(N3CCN(C)CC3)c(F)cc3c(=O)c(C(=O)O)cn1c23.C[C@H]1COc2c(N3CCN(C)CC3)c(F)cc3c(=O)c(C(=O)O)cn1c23.O` [LEVOFLOXACIN], the results for the Activity in series [1] and in series [2] were 0.5 to 2% and 0.026%, respectively.

Turning to `CCn1cc(C(=O)O)c(=O)c2ccc(C)nc21` [NALIDIXIC ACID], the MIC90 is more than 64 µg/mL in series [3]; more than 64 µg/mL in series [4]; more than 64 µg/mL in [5]; 16 µg/mL (≈ 68.9 µM) in series [6]; more than 64 µg/mL in [8]; more than 64 µg/mL in [9]. In addition, the MIC90 in series [10] was 2 µg/mL (≈ 8.61 µM); in series [11] it was 8 µg/mL (≈ 34.4 µM); in series [12] it was more than 64 µg/mL; in [13], more than 64 µg/mL. In [7], the half-life was 1.5 h.

In series [14], `O=C(O)c1cn(C2CC2)c2cc(N3CCNCC3)c(F)cc2c1=O` [CIPROFLOXACIN] had an AUC of 30000 ng·h/mL. In addition, the MIC90 in [3] came to 4 µg/mL (≈ 12.1 µM); in series [6], 0.25 µg/mL (≈ 0.754 µM); in series [9], 16 µg/mL (≈ 48.3 µM); in series [10], 0.03 µg/mL (≈ 0.0905 µM); in [11] it was 0.03 µg/mL (≈ 0.0905 µM); in series [12] it was 1 µg/mL (≈ 3.02 µM). For the same compound, in [15], the peak level (Cmax) was 3500 ng/mL.

With `C[C@@H]1CN(c2c(F)c(N)c3c(=O)c(C(=O)O)cn(C4CC4)c3c2F)C[C@H](C)N1` [SPARFLOXACIN], the Activity was more than 10% in [16], 2.9% in series [18], 0.5 to 2% in series [1] and more than 10% in series [21]. Moreover, the MIC90 was determined as 2 µg/mL (≈ 5.1 µM) in series [3]; 0.5 µg/mL (≈ 1.27 µM) in series [4]; 4 µg/mL (≈ 10.2 µM) in series [5]; 0.5 µg/mL (≈ 1.27 µM) in series [6]; 0.12 µg/mL (≈ 0.306 µM) in [8]; 4 µg/mL (≈ 10.2 µM) in series [9]. The MIC90 is 0.03 µg/mL (≈ 0.0765 µM) in series [10], 0.06 µg/mL (≈ 0.153 µM) in series [11], 1 µg/mL (≈ 2.55 µM) in series [12] and 0.25 µg/mL (≈ 0.637 µM) in series [13]. This compound had a half-life in series [17] of 18 h. Also, in [19], the fraction unbound is 0.6. This compound gave a Cmax in series [20] of 1000 ng/mL. In addition, the exposure (AUC) in [22] amounted to 20000 ng·h/mL.

As to `CO/N=C1\CN(c2nc3c(cc2F)c(=O)c(C(=O)O)cn3C2CC2)CC1CN` (configuration not stated) [GEMIFLOXACIN], the MIC90 in series [3] amounted to 4 µg/mL (≈ 10.3 µM); in [4] it was 0.03 µg/mL (≈ 0.077 µM); in series [5] it was 4 µg/mL (≈ 10.3 µM); in series [6], 0.25 µg/mL (≈ 0.642 µM); in series [8], 0.06 µg/mL (≈ 0.154 µM); in [10], 0.06 µg/mL (≈ 0.154 µM). Also, the MIC90 in series [11] came out at 0.03 µg/mL (≈ 0.077 µM); in series [12], 0.06 µg/mL (≈ 0.154 µM). The fraction unbound in series [23] is 0.4. In [24], this compound showed a half-life of 7 h. In [25], the AUC worked out at 9000 ng·h/mL. For the same compound, the concentration in [26] peaked (Cmax) at 1000 ng/mL.

For `COc1c(N2C[C@@H]3CCCN[C@@H]3C2)c(F)cc2c(=O)c(C(=O)O)cn(C3CC3)c12` [MOXIFLOXACIN], the MIC90 in series [3] was 2 µg/mL (≈ 4.98 µM); in [5], 8 µg/mL (≈ 19.9 µM); in series [6], 0.12 µg/mL (≈ 0.299 µM); in series [8], 0.06 µg/mL (≈ 0.149 µM); in [10], 0.06 µg/mL (≈ 0.149 µM); in [11], 0.06 µg/mL (≈ 0.149 µM). The compound further came in with a maximum concentration (Cmax) in series [27] of 3100 ng/mL. Moreover, the AUC in series [28] came to 30000 ng·h/mL.

For `C[C@H]1NCc2cc(-c3ccc4c(=O)c(C(=O)O)cn(C5CC5)c4c3OC(F)F)ccc21` [GARENOXACIN], the MIC90 in [3] is 0.5 µg/mL (≈ 1.17 µM); in series [4], 0.12 µg/mL (≈ 0.281 µM); in [5], 16 µg/mL (≈ 37.5 µM); in series [6] it was 0.5 µg/mL (≈ 1.17 µM); in [8], 0.03 µg/mL (≈ 0.0704 µM); in series [9] it was 1 µg/mL (≈ 2.35 µM). In addition, the MIC90 in series [10] was 0.03 µg/mL (≈ 0.0704 µM); in series [11] it was 0.06 µg/mL (≈ 0.141 µM); in series [12] it was 0.25 µg/mL (≈ 0.586 µM); in series [13], 0.25 µg/mL (≈ 0.586 µM). For the same compound, the half-life in series [17] was 15 h. Besides, the fraction unbound in series [19] was 0.13. The concentration in series [20] peaked (Cmax) at 5800 ng/mL. In addition, in [22], the AUC amounted to 59000 ng·h/mL.

Turning to `CC1COc2c(N3CCN(C)CC3)c(F)cc3c(=O)c(C(=O)O)cn1c23` (configuration not stated) [OFLOXACIN], the MIC90 is 2 µg/mL (≈ 5.53 µM) in [3]; 2 µg/mL (≈ 5.53 µM) in series [4]; 4 µg/mL (≈ 11.1 µM) in series [5]; 0.5 µg/mL (≈ 1.38 µM) in [6]; 0.5 µg/mL (≈ 1.38 µM) in [8]; 16 µg/mL (≈ 44.3 µM) in series [9]. In addition, the MIC90 in [10] turned out to be 0.03 µg/mL (≈ 0.083 µM); in series [11] it was 0.12 µg/mL (≈ 0.332 µM); in series [12] it was 2 µg/mL (≈ 5.53 µM); in series [13], 1 µg/mL (≈ 2.77 µM). Besides, the fraction unbound in [29] is 0.6. Besides, the AUC in series [30] stood at 64000 ng·h/mL. The compound also showed a half-life in [31] of 6 h. Also, the concentration in series [32] peaked (Cmax) at 4800 ng/mL.
